{
  "source": "ChEMBL document CHEMBL4813915",
  "about": "“Deep learning enables discovery of highly potent anti-osteoporosis natural products” (Eur J Med Chem, 2021)",
  "key": {"[1]": {"assay": "Inhibition of GST-tagged recombinant RANKL/M-CSF-induced osteoclastogenesis in C57BL/6 mouse bone marrow derived macrophages assessed as TRAcP enzymatic activity incubated for 5 days with subsequent replenishment of media for 2 days and measured by leucocyte acid phosphatase staining method", "format": "functional, tissue-based", "conditions": "bmdm; call rule not given here"}, "[2]": {"assay": "Cytotoxicity against C57BL/6 mouse bone marrow measured after 48 hrs by CCK8 assay", "format": "tissue-based, BMDM", "conditions": "mouse bone marrow cells"}, "[3]": {"system": "BMDM", "assay": "Inhibition of RANKL-induced osteoclastogenesis in C57BL/6 mouse bone marrow derived macrophages assessed as reduction in CTSK mRNA expression measured after 4 days by qRT-PCR method", "format": "functional, tissue-based", "conditions": "dose 0.5-5 µM, time 4.0 day"}, "[4]": {"system": "BMDM", "assay": "Inhibition of RANKL-induced osteoclastogenesis in C57BL/6 mouse bone marrow derived macrophages assessed as reduction in NFATC1 mRNA expression measured after 4 days by qRT-PCR method", "format": "functional, tissue-based", "conditions": "dose 0.5-5 µM, time 4.0 day"}, "[5]": {"system": "BMDM", "assay": "Inhibition of RANKL-induced osteoclastogenesis in C57BL/6 mouse bone marrow derived macrophages assessed as reduction in TRACP mRNA expression measured after 4 days by qRT-PCR method", "format": "functional, tissue-based", "conditions": "dose 0.5-5 µM, time 4.0 day"}, "[6]": {"system": "BMDM", "assay": "Inhibition of RANKL-induced osteoclastogenesis in C57BL/6 mouse bone marrow derived macrophages assessed as reduction in RANK mRNA expression measured after 4 days by qRT-PCR method", "format": "functional, tissue-based", "conditions": "dose 0.5-5 µM, time 4.0 day"}},
  "data": [
    {"compound": "COc1cc2c(cc1OC)C(Cc1ccc(OCc3ccccc3)c(OC)c1)=NCC2", "values": [
      {"measurement": "IC50", "setting": "[1]; read-out: IC50", "value": 32, "unit": "nM"},
      {"measurement": "CC50 at 48 h", "setting": "[2]", "value": 26800, "unit": "nM"},
      {"measurement": "inhibition", "setting": "[3]", "value": "Dose-Dependent Effect"},
      {"measurement": "inhibition", "setting": "[4]", "value": "Dose-Dependent Effect"},
      {"measurement": "inhibition", "setting": "[5]", "value": "Dose-Dependent Effect"},
      {"measurement": "inhibition", "setting": "[6]", "value": "Dose-Dependent Effect"}
    ]},
    {"compound": "COc1ccc2c(c1)CCN=C2Cc1ccc(OCc2ccccc2)c(OC)c1C", "values": [
      {"measurement": "IC50", "setting": "[1]; read-out: IC50", "value": 68, "unit": "nM"},
      {"measurement": "CC50 at 48 h", "setting": "[2]", "value": 19900, "unit": "nM"},
      {"measurement": "inhibition", "setting": "[3]", "value": "Dose-Dependent Effect"},
      {"measurement": "inhibition", "setting": "[4]", "value": "Dose-Dependent Effect"},
      {"measurement": "inhibition", "setting": "[5]", "value": "Dose-Dependent Effect"},
      {"measurement": "inhibition", "setting": "[6]", "value": "Dose-Dependent Effect"}
    ]},
    {"compound": "C=C1CC[C@@H]2[C@](C)(CO)[C@H](O)CC[C@@]2(C)[C@@H]1C/C=C1/C(=O)OC[C@H]1O", "note": "[ANDROGRAPHOLIDE]", "values": [
      {"measurement": "IC50", "setting": "[1]; read-out: IC50", "value": 550, "unit": "nM"}
    ]},
    {"compound": "COc1cc2nc3occc3c(OC)c2cc1OC", "note": "[KOKUSAGININE]", "values": [
      {"measurement": "IC50", "setting": "[1]; read-out: IC50", "value": 3160, "unit": "nM"}
    ]},
    {"compound": "COc1ccc(C(=O)/C=C/c2ccccc2)c(O)c1", "values": [
      {"measurement": "IC50", "setting": "[1]", "value": "Not Active"}
    ]},
    {"compound": "COc1ccc(C[C@H]2c3cc(OC)c(OC)cc3CCN2C)cc1OC", "values": [
      {"measurement": "IC50", "setting": "[1]", "value": "Not Active"}
    ]},
    {"compound": "C[C@@H]1CC[C@@]2(OC1)O[C@H]1C[C@H]3[C@@H]4CC[C@H]5C[C@H](O)CC[C@]5(C)C4=CC[C@]3(C)[C@H]1[C@@H]2C", "values": [
      {"measurement": "IC50", "setting": "[1]", "value": "Not Active"}
    ]},
    {"compound": "CC(=O)[C@H]1CC[C@H]2[C@@H]3CC[C@H]4C[C@@H](OC(=O)Cc5ccc(C(=O)c6ccccc6)cc5)CC[C@]4(C)[C@H]3CC[C@]12C", "values": [
      {"measurement": "IC50", "setting": "[1]; read-out: IC50", "value": 1730, "unit": "nM"}
    ]},
    {"compound": "COc1cc([C@H]2OC[C@H]3[C@@H]2CO[C@@H]3c2ccc(OC(C)=O)c(OC)c2)ccc1OC(C)=O", "values": [
      {"measurement": "IC50", "setting": "[1]", "value": "Not Active"}
    ]},
    {"compound": "COc1c2cc3c(cc2nc2occc12)OCO3", "note": "[MACULINE]", "values": [
      {"measurement": "IC50", "setting": "[1]", "value": "Not Active"}
    ]}
  ]
}
